Results on 13 compounds are retold here after patent publication US20110318393A1, “Substituted Pyrazole Compounds” (MIIKANA THERAPEUTICS, INC., priority 2008, published 2011).

Holding throughout (type): biochemical
One assay addresses T1, recombinant Aurora A (Homo sapiens, UniProt O14965).
T1 construct: purchased Upstate, Lake Placid, N.Y
T1 sequence (O14965 1-403): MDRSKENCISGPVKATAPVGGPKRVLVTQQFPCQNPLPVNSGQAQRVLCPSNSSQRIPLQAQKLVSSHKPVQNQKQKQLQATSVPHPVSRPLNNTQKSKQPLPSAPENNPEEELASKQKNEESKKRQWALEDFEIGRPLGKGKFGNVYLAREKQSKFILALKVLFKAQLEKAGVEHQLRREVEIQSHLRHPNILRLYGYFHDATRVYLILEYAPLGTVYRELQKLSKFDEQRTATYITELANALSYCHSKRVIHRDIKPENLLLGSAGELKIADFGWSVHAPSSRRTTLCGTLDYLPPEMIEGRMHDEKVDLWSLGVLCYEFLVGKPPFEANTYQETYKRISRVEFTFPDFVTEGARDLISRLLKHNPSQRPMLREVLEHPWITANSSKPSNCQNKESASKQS
The experiment in a line: Aurora A (Aurora 2) inhibition assay, Z'-Lyte kinase assay. Conditions: ATP 10 μM, 1 h; less than or equal to 100 nM. As to the method:
Compounds were tested for their potency against recombinant Aurora A (Upstate, Lake Placid, N.Y.) using the PanVera Z′-Lyte kinase assay kit-Ser/Thr 1 peptide (Invitrogen, Carlsbad, Calif.). Assays were carried out in kinase assay buffer (50 mM HEPES, pH 7.5, 10 mM MgCl2, 5 mM EGTA, 0.05% Brij-35, 2 mM DTT). Test compounds were initially dissolved in DMSO at 100× the highest tested concentration, then serially diluted to 4× test concentrations in kinase assay buffer. Next, Aurora A (final concentration 200-500 ng/mL), Z′-Lyte Ser/Thr 1 peptide (final concentration 2 μM) and ATP (final concentration 10 μM) were added according to the manufacturer's instructions. Assays were carried out in half-area 96-well white polystyrene assay plates (Corning, Corning, N.Y.) in a final volume of 20 μl. The reaction was allowed to proceed for 1 h at room temperature in the dark, at which point the development reagent and stop reagent were added according to the manufacturer's instructions. Coumarin (Ex. 400 nm, Em. 465 nm) and fluorescein (Ex. 400 nm, Em. 565 nm) fluorescence values were measured on a SpectraFluor Plus plate reader (Tecan, Durham, N.C.). The emission ratio (coumarin/fluorescein) was determined and used to calculate the percent phosphorylation for each well. Wells containing substrate but no kinase and wells containing a phosphopeptide control were used to set 0% and 100% phosphorylation values, respectively. Typically 20-40% of the substrate was phosphorylated in wells without inhibitor. Dose-response curves of relative Aurora A activity vs. inhibitor concentration were plotted with Grafit (Erithacus Software, Horley, Surrey, UK).

In assay [1] the target is T2, N-terminal His-tagged human Src (Homo sapiens, UniProt P12931).
T2 construct: His (N); purchased Upstate USA Inc, Charlottesville, Va
T2 sequence (P12931 whole entry): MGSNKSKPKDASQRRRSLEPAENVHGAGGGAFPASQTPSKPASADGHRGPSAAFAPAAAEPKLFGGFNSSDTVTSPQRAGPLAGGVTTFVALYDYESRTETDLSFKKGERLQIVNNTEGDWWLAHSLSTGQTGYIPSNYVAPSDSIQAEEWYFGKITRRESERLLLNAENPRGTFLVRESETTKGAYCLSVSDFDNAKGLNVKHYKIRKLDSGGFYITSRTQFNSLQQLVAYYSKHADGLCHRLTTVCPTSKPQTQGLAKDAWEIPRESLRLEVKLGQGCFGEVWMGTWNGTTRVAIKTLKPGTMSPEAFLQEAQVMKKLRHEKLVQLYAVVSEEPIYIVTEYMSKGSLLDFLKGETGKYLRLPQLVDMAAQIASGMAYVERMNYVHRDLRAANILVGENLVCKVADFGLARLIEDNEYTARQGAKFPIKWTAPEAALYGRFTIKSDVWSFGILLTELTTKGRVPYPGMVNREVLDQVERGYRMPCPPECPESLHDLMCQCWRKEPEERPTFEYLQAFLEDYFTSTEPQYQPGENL
The experiment in a line: Src kinase inhibition assay (33P-ATP filter assay). Conditions: 40 minutes, room temperature; less than or equal to 100 nM. Here is the method:
Compounds were assayed for Src kinase inhibitory activity using N-terminal His-tagged human Src (Upstate USA Inc, 706 Forest Street, Charlottesville, Va.). Serial dilutions of compound were assayed in a final reaction volume of 25 μL by incubating a solution of the above Src kinase (5-10 mU), 8 mM MOPS (3-(N-morpholino)propanesulfonic acid) pH 7.0, 0.2 mM EDTA (ethylenediamine tetracetic acid), 250 μM amino acid sequence KVEKIGEGTYGVVYK (Upstate USA Inc, 706 Forest Street, Charlottesville, Va.), and 10 mM magnesium acetate and [γ-^33P-ATP] (specific activity of about 500 cpm/pmol, concentration as required). The reaction was initiated by the addition of the magnesium acetate and [γ-^33P-ATP] mixture. After incubation for 40 minutes at room temperature, the reaction was stopped by the addition of 5 μL of a 3% phosphoric acid solution. A 10 μL aliquote of the reaction was then spotted onto a P30 filtermat (PerkinElmer, Wellesley, Mass.) and washed three times for five minutes in 75 mM phosphoric acid and once in methanol prior to drying and scintillation counting. Inhibition of Src activity was determined by comparison to assays that contained no inhibitor.

Assay [2] addresses T3, N-terminal GST-tagged recombinant human Flt3, residues 564-end (Homo sapiens, UniProt P36888).
T3 construct: recombinant human Flt3, residues 564-end; GST (N); purchased Upstate USA Inc, Charlottesville, Va
T3 sequence (P36888 564-993 limits assumed): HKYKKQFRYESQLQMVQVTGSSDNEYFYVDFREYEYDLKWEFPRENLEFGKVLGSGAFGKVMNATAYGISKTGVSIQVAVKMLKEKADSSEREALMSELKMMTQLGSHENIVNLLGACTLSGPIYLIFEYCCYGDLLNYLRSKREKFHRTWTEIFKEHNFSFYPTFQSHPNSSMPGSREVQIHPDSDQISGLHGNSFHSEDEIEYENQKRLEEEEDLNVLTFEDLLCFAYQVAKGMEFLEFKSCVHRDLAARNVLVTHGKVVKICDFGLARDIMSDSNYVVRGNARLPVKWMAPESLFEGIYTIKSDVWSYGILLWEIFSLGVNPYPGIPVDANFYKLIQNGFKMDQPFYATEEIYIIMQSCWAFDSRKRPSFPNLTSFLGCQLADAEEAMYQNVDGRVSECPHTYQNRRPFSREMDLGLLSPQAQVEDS
Description: Flt3 kinase inhibition assay (33P-ATP filter assay). Conditions: 40 minutes, room temperature; less than or equal to 100 nM. Here is the method:
(§1) Compounds were assayed for Flt3 kinase inhibitory activity using N-terminal GST-tagged recombinant human Flt3, residues 564-end (Upstate USA Inc, 706 Forest Street, Charlottesville, Va.). Serial dilutions of compound were assayed in a final reaction volume of 25 μL by incubating a solution of the above Flt3 kinase (5-10 mU), 8 mM MOPS (3-(N-morpholino)propanesulfonic acid) pH 7.0, 0.2 mM EDTA (ethylenediamine tetracetic acid), 50 μM amino acid sequence EAIYAAPFAKKK (Upstate USA Inc, 706 Forest Street, Charlottesville, Va.), and 10 mM magnesium acetate and [γ-^33P-ATP] (specific activity of about 500 cpm/pmol, concentration as required). The reaction was initiated by the addition of the magnesium acetate and [γ-^33P-ATP] mixture. After incubation for 40 minutes at room temperature, the reaction was stopped by the addition of 5 μL of a 3% phosphoric acid solution. A 10 μL aliquote of the reaction was then spotted onto a P30 filtermat (PerkinElmer, Wellesley, Mass.) and washed three times for five minutes in 75 mM phosphoric acid and once in methanol prior to drying and scintillation counting. Inhibition of Flt3 activity was determined by comparison to assays that contained no inhibitor.

Assay [3] concerns the target T4, N-terminal His6-tagged recombinant human KDR, residues 790-end (Homo sapiens, UniProt P35968).
T4 construct: recombinant human KDR, residues 790-end; His6 (N); purchased Upstate USA Inc, Charlottesville, Va
The experiment in a line: KDR kinase inhibition assay (33P-ATP filter assay). The settings on record: 40 minutes, room temperature; less than or equal to 100 nM. Here is the method: as §1, with “KDR” for “Flt3”, “His6-tagged” for “GST-tagged”, “KDR,” for “Flt3,”, “790-end” for “564-end”, “0.33 mg/mL myelin basic protein” for “50 μM amino acid sequence EAIYAAPFAKKK”

T4 sequence (P35968 790-1356 limits assumed): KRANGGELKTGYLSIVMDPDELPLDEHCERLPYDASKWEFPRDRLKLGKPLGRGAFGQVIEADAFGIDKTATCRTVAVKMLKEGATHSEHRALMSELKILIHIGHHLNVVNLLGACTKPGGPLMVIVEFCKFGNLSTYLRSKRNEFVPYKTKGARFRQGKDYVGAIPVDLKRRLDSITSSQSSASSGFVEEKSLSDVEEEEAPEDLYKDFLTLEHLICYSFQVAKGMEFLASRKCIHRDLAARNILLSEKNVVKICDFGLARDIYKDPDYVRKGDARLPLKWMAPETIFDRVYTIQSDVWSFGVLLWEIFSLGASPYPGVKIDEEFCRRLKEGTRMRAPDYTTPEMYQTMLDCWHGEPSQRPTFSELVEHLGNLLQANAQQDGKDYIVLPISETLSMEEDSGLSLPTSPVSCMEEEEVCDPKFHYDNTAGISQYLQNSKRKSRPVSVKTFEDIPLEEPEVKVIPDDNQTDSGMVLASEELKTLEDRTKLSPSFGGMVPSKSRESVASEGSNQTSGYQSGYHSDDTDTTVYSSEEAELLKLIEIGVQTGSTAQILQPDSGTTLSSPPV

Take `COC1CCN(C2CN(c3cc(Nc4cc(C)[nH]n4)nc(/C=C/c4ccccc4)n3)C2)CC1` [Compound 1, (E)-6-(3-(4-methoxypiperidin-1-yl)azetidin-1-yl)-N-(5-methyl-1H-pyrazol-3-yl)-2-styrylpyrimidin-4-amine]: the IC50 (at recombinant Aurora A; in assay [1]; in assay [2]; in assay [3]) was no more than 0.1 µM in each case.
As to `Cc1cc(Nc2cc(N3CCC(N4CCCC4)CC3)nc(/C=C/c3ccccc3)n2)n[nH]1` [Compound 2, (E)-N-(5-methyl-1H-pyrazol-3-yl)-6-(4-(pyrrolidin-1-yl)piperidin-1-yl)-2-styrylpyrimidin-4-amine], the IC50 (at recombinant Aurora A; in assay [1]; in assay [2]; in assay [3]) was no more than 0.1 µM in each case.
In the case of `Cc1cc(Nc2cc(N3CCN(C4CCN(C)CC4)CC3)nc(/C=C/c3ccccc3)n2)n[nH]1` [Compound 4, (E)-N-(5-methyl-1H-pyrazol-3-yl)-6-(4-(1-methylpiperidin-4-yl)piperazin-1-yl)-2-styrylpyrimidin-4-amine], the IC50 (at recombinant Aurora A; in assay [1]; in assay [2]; in assay [3]) was no more than 0.1 µM each time.
Regarding `Cc1cc(Nc2cc(N3CCN(c4ccccc4)CC3)nc(/C=C/c3ccccc3)n2)n[nH]1` [Compound 8, (E)-N-(5-methyl-1H-pyrazol-3-yl)-6-(4-phenylpiperazin-1-yl)-2-styrylpyrimidin-4-amine], the IC50 in assay [2] is no more than 0.1 µM.
For the compound `Cc1cc(Nc2cc(N3CCN(C4CCCCC4)CC3)nc(/C=C/c3ccccc3)n2)n[nH]1` [Compound 9, (E)-6-(4-cyclohexylpiperazin-1-yl)-N-(5-methyl-1H-pyrazol-3-yl)-2-styrylpyrimidin-4-amine], the IC50 (on recombinant Aurora A; in assay [1]; in assay [2]; in assay [3]) was no more than 0.1 µM each time.
Turning to `Cc1cc(Nc2cc(N3CCN(c4ccc(C#N)cc4)CC3)nc(/C=C/c3ccccc3)n2)n[nH]1` [Compound 10, (E)-4-(4-(6-(5-methyl-1H-pyrazol-3-ylamino)-2-styrylpyrimidin-4-yl)piperazin-1-yl)benzonitrile], the IC50 in assay [2] was no more than 0.1 µM.
Take `Cc1cc(Nc2cc(N3CCC(O)(c4ccc(Cl)cc4)CC3)nc(/C=C/c3ccccc3)n2)n[nH]1` [Compound 11, (E)-4-(4-chlorophenyl)-1-(6-(5-methyl-1H-pyrazol-3-ylamino)-2-styrylpyrimidin-4-yl)piperidin-4-ol]: the IC50 in assay [2] is no more than 0.1 µM.
As for `Cc1cc(Nc2cc(N3CCN(c4ccc([N+](=O)[O-])cc4)CC3)nc(/C=C/c3ccccc3)n2)n[nH]1` [Compound 12, (E)-N-(5-methyl-1H-pyrazol-3-yl)-6-(4-(4-nitrophenyl)piperazin-1-yl)-2-styrylpyrimidin-4-amine], the IC50 in assay [2] and in assay [3] was no more than 0.1 µM throughout.
As for `Cc1cc(Nc2cc(N3CCN(CCN4CCOCC4)CC3)nc(/C=C/c3ccccc3)n2)n[nH]1` [Compound 13, (E)-N-(5-methyl-1H-pyrazol-3-yl)-6-(4-(2-morpholinoethyl)piperazin-1-yl)-2-styrylpyrimidin-4-amine], the IC50 (at recombinant Aurora A; in assay [1]; in assay [2]; in assay [3]) was no more than 0.1 µM each time.
Take `Cc1cc(Nc2cc(N3CCN(c4ccccn4)CC3)nc(/C=C/c3ccccc3)n2)n[nH]1` [Compound 14, (E)-N-(5-methyl-1H-pyrazol-3-yl)-6-(4-(pyridin-2-yl)piperazin-1-yl)-2-styrylpyrimidin-4-amine]: the 50% inhibitory concentration (IC50) (at recombinant Aurora A; in assay [2]) was no more than 0.1 µM each time.
For `Cc1cc(Nc2cc(N3CC(N4CCOCC4)C3)nc(/C=C/c3ccccc3)n2)n[nH]1` [Compound 15, (E)-N-(5-methyl-1H-pyrazol-3-yl)-6-(3-morpholinoazetidin-1-yl)-2-styrylpyrimidin-4-amine], the IC50 (on recombinant Aurora A; in assay [1]; in assay [2]; in assay [3]) was no more than 0.1 µM each time.
As for `Cc1cc(Nc2cc(N3CCC(O)(Cc4ccccc4)CC3)nc(/C=C/c3ccccc3)n2)n[nH]1` [Compound 16], the IC50 (on recombinant Aurora A; in assay [2]) was no more than 0.1 µM each time.
As for `Cc1cc(Nc2cc(N3CC(N4CCCCC4)C3)nc(/C=C/c3ccccc3)n2)n[nH]1` [Compound 18, (E)-N-(5-methyl-1H-pyrazol-3-yl)-6-(3-(piperidin-1-yl)azetidin-1-yl)-2-styrylpyrimidin-4-amine], the IC50 (on recombinant Aurora A; in assay [1]; in assay [2]; in assay [3]) was no more than 0.1 µM throughout.

Broadly, the IC50 is the point on the concentration scale where inhibition reaches its midpoint.
